The source of these data is PubChem BioAssay (NCI).

Among the test systems are RPMI-8226 leukemia; OVCAR-3 ovarian; SF-295 CNS; HCT-116 colon; XF 498 CNS; 786-0 renal; EKVX NSCLC; SW-620 colon; NCI-H522 lung; ACHN renal.
Common to all, as to assay: NCI anticancer screen, dose series, 48 h

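Compound exposure: 48 hours, 5 concentrations, 96-well plates. Definition used: TGI = concentration required for complete inhibition of growth.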

With `O=c1cccccc1NCCCCCCCCCNc1cccccc1=O`, the TGI turned out to be 22.3 µM with RPMI-8226 leukemia; 37.5 µM with OVCAR-3 ovarian; 44.3 µM in the test on SF-295 CNS; 17.4 µM with HCT-116 colon; 20 µM in the test on XF 498 CNS; 88.9 µM with 786-0 renal. For the same molecule, the TGI in the test on EKVX NSCLC was determined as 32.7 µM; in the test with SW-620 colon, 68.2 µM; in the test with NCI-H522 lung, 52.9 µM; in the test with ACHN renal, 36.2 µM.
As to `COc1ccc(COCC(Cn2ccnc2)OCc2ccc(C(=O)O)cc2)cc1` (configuration not stated), the TGI in the test with RPMI-8226 leukemia, in the test on SF-295 CNS, in the test with HCT-116 colon, with XF 498 CNS, with 786-0 renal and in the test on EKVX NSCLC was above 100 µM each time. Also, the TGI with SW-620 colon, with NCI-H522 lung and in the test with ACHN renal was above 100 µM in each case.
Consider `COc1ccc2cc3n(c2c1)CCc1cc(OC)c(OC)cc1-3`, for which the TGI with SF-295 CNS, with XF 498 CNS, with 786-0 renal, in the test on EKVX NSCLC, with SW-620 colon and with NCI-H522 lung was above 100 µM throughout. Also, the TGI in the test on ACHN renal is above 100 µM.
`CC1CC2(CC[C@@H]1O)OCCO2` (some centres not stated): the TGI with RPMI-8226 leukemia, in the test on OVCAR-3 ovarian, with SF-295 CNS, in the test on HCT-116 colon, in the test with XF 498 CNS and with 786-0 renal was above 100 µM each time. Also, the TGI in the test with EKVX NSCLC, in the test on SW-620 colon and with NCI-H522 lung was above 100 µM throughout.
`O=C(O)c1c[nH]cc1C(=O)O`: the TGI in the test on RPMI-8226 leukemia, with OVCAR-3 ovarian, in the test with SF-295 CNS, in the test on HCT-116 colon, in the test on XF 498 CNS and in the test on 786-0 renal was above 100 µM in each case. Further, the TGI in the test on EKVX NSCLC, in the test on SW-620 colon and in the test on NCI-H522 lung was above 100 µM in each case.
`CN(C)CCNC(=O)c1ccc(Cl)c2c(Nc3ccc(S(N)(=O)=O)cc3)c3ccccc3nc12`: the TGI was 29.1 µM with RPMI-8226 leukemia; 15.3 µM with SF-295 CNS; 1.71 µM in the test on HCT-116 colon; 2.86 µM in the test with XF 498 CNS; 9.2 µM in the test with 786-0 renal; 17.7 µM in the test with EKVX NSCLC. Moreover, the TGI in the test with SW-620 colon worked out at 2.52 µM; with NCI-H522 lung, 1.94 µM; in the test with ACHN renal it was 10.9 µM.
With `CC(=O)Oc1ccccc1C(=O)C1c2cccc(O)c2C(=O)c2c(O)cccc21`, the TGI in the test with RPMI-8226 leukemia stood at 2.48 µM; in the test on SF-295 CNS, 2.65 µM; with HCT-116 colon, 3.41 µM; with XF 498 CNS it was 0.506 µM; in the test on 786-0 renal, 3.98 µM; with EKVX NSCLC it was 6.15 µM. The TGI with SW-620 colon is 2.26 µM; in the test on NCI-H522 lung it was 3.88 µM; in the test on ACHN renal, 3.45 µM.
As to `Cc1c2ccncc2c(C)c2c1[nH]c1ccc(OC(C)(C)C)cc12`, the TGI in the test with RPMI-8226 leukemia worked out at 5.49 µM; in the test with OVCAR-3 ovarian, 3.42 µM; in the test with SF-295 CNS, 4.87 µM; with HCT-116 colon, 3.36 µM; in the test on XF 498 CNS it was 3.75 µM; with 786-0 renal, 2.96 µM. Besides, the TGI in the test with EKVX NSCLC came out at 36.2 µM; in the test with SW-620 colon it was 5.1 µM; in the test with NCI-H522 lung, 5.81 µM.
Regarding `CN(C)C(=O)C1CCC(=C2C(=O)OC(C)(C)OC2=O)N1C` (configuration not stated), the TGI in the test on OVCAR-3 ovarian, in the test on SF-295 CNS, in the test on HCT-116 colon, in the test on XF 498 CNS, in the test with 786-0 renal and in the test on EKVX NSCLC was above 100 µM throughout. Besides, the TGI in the test on SW-620 colon, with NCI-H522 lung and in the test on ACHN renal was above 100 µM throughout.
`N/N=C(\Cc1ccccc1)NN=C(N)N`: the TGI in the test with RPMI-8226 leukemia, in the test with SF-295 CNS, with HCT-116 colon, with XF 498 CNS, in the test on 786-0 renal and in the test with EKVX NSCLC was above 100 µM each time. Moreover, the TGI in the test with SW-620 colon, in the test with NCI-H522 lung and in the test with ACHN renal was above 100 µM each time.
Take `Cc1cccc(C(C)(C)C)c1NC(=O)C(=O)C(c1cnc2ccccc2n1)[N+](=O)[O-]` (configuration not stated): the TGI in the test with RPMI-8226 leukemia, in the test on SF-295 CNS, with HCT-116 colon, with XF 498 CNS, in the test on 786-0 renal and in the test with EKVX NSCLC was above 100 µM in each case. For the same molecule, the TGI in the test with SW-620 colon, in the test with NCI-H522 lung and in the test with ACHN renal was above 100 µM each time.
`C/C=C(/CCCCNCCCC)[Si](C)(C)C`: the TGI was 28.3 µM with OVCAR-3 ovarian; 29.2 µM in the test with SF-295 CNS; 26.6 µM with HCT-116 colon; 23.7 µM in the test on XF 498 CNS; 25.5 µM in the test with 786-0 renal; 25.8 µM in the test with EKVX NSCLC. Moreover, the TGI in the test on SW-620 colon stood at 34.1 µM; in the test on NCI-H522 lung, 25.3 µM; in the test on ACHN renal, 26.9 µM.
